Reference: the NIST ThermoML archive (doi:10.1016/j.jct.2010.08.021)
± gives the expanded uncertainty stated by the source.

Experiment: mn = molality of the nth substance listed, in mol/kg
Conditions: 283.15 K; 101 kPa; Liquid; Vibrating tube method; m2 = 0

| mass density [kg/m3] | SMILES |
| --- | --- |
| 999.699 ± 0.15 | O [water] + N.N.O=C(O)CC(O)(CC(=O)O)C(=O)O |
| 999.699 ± 0.11 | O [water] + NCC(=O)O |
| 999.699 ± 0.12 | O [water] + N[C@@H](CO)C(=O)O |
